From publication PMC6753678, “Fueling Open Innovation for Malaria Transmission-Blocking Drugs: Hundreds of Molecules Targeting Early Parasite Mosquito Stages” (Frontiers in Microbiology, 2019)
Like-named read-outs stand apart in the source and are kept apart here.

Key:
[1] = system: 3D7-strain P. falciparum asexual parasites; test: P. falciparum asexual growth inhibition assay (Pf GIA); assay type: cell-based, Plasmodium falciparum; details: dose response confirmation; read-out: Pf asexual growth inhibition assays IC50
Protocol: The asexual activity of active compounds was tested in dose response with parasite lactate dehydrogenase (LDH) activity used as a readout of parasite viability as described in [Gamo et al. (2010)]. Briefly, 3D7-strain P. falciparum asexual parasites were diluted to 0.25% parasitemia, 2% hematocrit in culture medium composed of RPMI medium with 25 mM HEPES, 2% D-sucrose, 0.3% L-glutamine, 150 μM hypoxanthine plus 5% albumax. 25 μl of parasite inoculum was then dispensed into each well of a 384 well plate containing test compounds and positive (50 μM chloroquine) and negative (DMSO) controls. Plates were incubated for 72 h at 37°C in a 5% CO2, 5%O2, 90% N2 environment before being frozen at −70°C. Plates were then thawed and 70 μl of reaction mix (143 mM sodium L-lactate, 143 mM 3-acetyl pyridine adenine dinucleotide, […] Nitro Blue tetrazolium chloride, […] diaphorase (2.83 U/ml), 0.7% Tween 20, 100 mM Tris–HCl pH 8.0) was added to each well using a Multidrop Combi automated dispenser. Plates were shaken to mix and then absorbance at 650 nm was measured after 10 min incubation at room temperature. Percent inhibition of asexual growth was then calculated with respect to positive and negative controls. Data presented is the mean of three independent biological replicates.

HepG2 cells = test: HepG2 cytotoxicity assay; details: for IC50: read-out: HepG2 cytotoxicity assay IC50, dose response confirmation; for Pb ODA (this manuscript) HepG2 cytoxicity: HepG2 cytotoxicity listed with the Pb ODA data set (this manuscript)
Protocol: Briefly, HepG2 cells were seeded onto compound-treated 384 well plates at a density of 2,500 cells per well in Minimal Essential Medium (MEM) plus 10% fetal bovine serum and 1% non-essential amino acids solution (NEAA). Cells were incubated with test compounds or 50 μM doxorubicin (positive) and DSMO (negative) controls at 37°C for 48 h in a humidified 5% CO2 atmosphere. […] Cell viability was then measured in a fluorescent plate reader and percent inhibition calculated with respect to positive and negative controls.

[2] = system: P. berghei ookinete development; details: for % inhibition, Replicate A / % inhibition, Replicate B: primary screen at 1 μM
[3] = unified HepG2 value across the three screens
[4] = read-out: Pb ODA IC50, this manuscript
[5] = read-out: Pb Ookinete development assay IC50, dose response confirmation
[6] = read-out: Pb ODA (this manuscript) IC50, P. berghei ookinete development assay, this manuscript

Row | SMILES | IC50 [1] | IC50 (HepG2 cells) | Unified cytotox (HepG2 cells; [3]) | Is compound selective in assay? Pb ODA active? ([2]; 1: YES, 0: NO) | % inhibition, Replicate A [2] | % inhibition, Replicate B [2] | IC50 [2, 4] | IC50 [2, 5] | Pb ODA (this manuscript) HepG2 cytoxicity (HepG2 cells) | Is compound selective in assay? Pb ODA active? [2] | IC50 [2, 6] | HepG2 cytoxicity (Pb ODA, this manuscript) (HepG2 cells; HepG2, this manuscript) | Unified cytotox (HepG2 cells; HepG2 values of the three screens unified)
1 | O=C(Nc1ccccc1)Nc1ccc(-n2ccc(C(F)(F)F)n2)cc1 [TCMDC-123480] | 419 nM | 100 µM | 100.00 µM | 1 (1: YES) | 42.19% | 52.26% | 1900 nM | 1900 nM | – | – | – | – | –
2 | O=c1c2c([nH]c3cc(Cl)ccc13)CCCC2 [TCMDC-123504] | 824 nM | 100 µM | – | – | 114.67% | 120.99% | – | 1240 nM | 100.00 µM | 1 (key: 1: YES; 0: NO) | 1240 nM | – | –
3 | O=C(NCC1CCCCC1)c1cc(=O)c2ccccc2o1 [TCMDC-123621] | 563 nM | 100 µM | 100.00 µM | 1 (1: YES) | 49.08% | 59.87% | – | 1040 nM | – | – | – | – | –
4 | CC(=O)Nc1cccc(Nc2c3ccccc3nc3ccccc23)c1 [TCMDC-123741] | 1470 nM | 12.3 µM | 12.30 µM | 1 (1: YES) | 54.87% | 64.71% | 690 nM | 686 nM | – | – | – | – | –
5 | CSc1ccc(C=CC(=O)NC(=O)c2ccccc2O)cc1 [TCMDC-123758] | 179 nM | 73.3 µM | 73.28 µM | 1 (1: YES) | 53.84% | 38.37% | 530 nM | 526 nM | – | – | – | – | –
6 | Cc1cc(C(=O)OCC(=O)Nc2c(C)n(C)n(-c3ccccc3)c2=O)c(C)n1-c1ccc(F)cc1 [TCMDC-123794] | 43 nM | 19.5 µM | 19.50 µM | 1 (1: YES) | 88.45% | 92.59% | – | 210 nM | – | – | – | – | –
7 | Cc1nc(/N=C(\N)NC(=O)NC2CCCCC2)nc2ccccc12 [TCMDC-123808] | 1.7 nM | 35.5 µM | – | – | 57.73% | 102.93% | – | 1080 nM | 35.48 µM | 1 (key: 1: YES; 0: NO) | 1080 nM | – | –
8 | Cc1cc(NC(c2ccc(Cl)cc2)c2ccc3cccnc3c2O)no1 (stereo not drawn) [TCMDC-123828] | 2550 nM | 1.38 µM | 1.38 µM | 0 (0: NO) | 41.30% | 61.82% | 3020 nM | 3020 nM | – | – | – | – | –
9 | Cc1sc2ncnc(Sc3nc4ccccc4[nH]3)c2c1C [TCMDC-123835] | 748 nM | 100 µM | 100.00 µM | 1 (1: YES) | 69.92% | 40.18% | 920 nM | 919 nM | – | – | – | – | –
10 | CCOC(=O)c1c[nH]c2c(ccc3ccccc32)c1=O [TCMDC-123857] | 443 nM | 100 µM | 100.00 µM | 1 (1: YES) | 88.11% | 83.13% | 560 nM | 562 nM | – | – | – | – | –
11 | Cc1ccc(C2=NNC3(S2)C(=O)N(C)c2ccccc23)cc1 (stereo not drawn) [TCMDC-123863] | 3270 nM | 56.9 µM | 56.89 µM | 1 (1: YES) | 93.73% | 58.53% | 2440 nM | 2440 nM | – | – | – | – | –
12 | CN(C)c1ccc(C=Cc2nc(=O)c3ccccc3o2)cc1 [TCMDC-123870] | 41 nM | 100 µM | – | – | 83.52% | 65.62% | – | 155 nM | 100.00 µM | 1 (key: 1: YES; 0: NO) | 150 nM | – | –
13 | O=C(c1cccs1)N1CCN(c2ccc([N+](=O)[O-])c(NC3CC3)c2)CC1 [TCMDC-123877] | 2660 nM | 100 µM | 100.00 µM | 1 (1: YES) | 53.49% | 54.36% | 1700 nM | 1700 nM | – | – | – | – | –
14 | O=c1nc(C=Cc2ccc(Br)cc2)oc2ccccc12 [TCMDC-123878] | 1730 nM | 100 µM | – | – | 55.97% | 32.93% | – | 2720 nM | 100.00 µM | 1 (key: 1: YES; 0: NO) | 2720 nM | – | –
15 | Br.CC(CCON1C(N)=NC(N)=NC1(C)C)c1ccc(Cl)c(Cl)c1 (stereo not drawn) [TCMDC-123922] | < 0.2 nM | 0.001 µM | – | 0 (0: NO) | 47.79% | 55.73% | 5760 nM | 5760 nM | – | – | – | 0.001 µM | 0.001 µM
16 | O=c1c2ccccc2[nH]c2cc(Cl)ccc12 [TCMDC-123989] | 1280 nM | 50.7 µM | 50.70 µM | 1 (1: YES) | 43.19% | 69.34% | 1180 nM | 1180 nM | – | – | – | – | –
17 | CC(Cl)=CCc1c(C)[nH]c2c(ccc3ccccc32)c1=O [TCMDC-124085] | 276 nM | 100 µM | – | – | 85.49% | 96.24% | – | 328 nM | 100.00 µM | 1 (key: 1: YES; 0: NO) | 330 nM | – | –
18 | CCOC(=O)C(=O)N1c2ccc(OCC)cc2-c2c(ssc2=S)C1(C)C [TCMDC-124090] | 89 nM | 100 µM | 100.00 µM | 1 (1: YES) | 23.50% | 54.71% | 2010 nM | 2010 nM | – | – | – | – | –
19 | CC(C)c1nc(N2CCN(C(=S)NCc3ccccc3)CC2)c(C#N)c2c1COC(C)(C)C2 [TCMDC-124093] | 55 nM | 0.0017 µM | 0.0017 µM | 0 (0: NO) | 50.94% | 54.99% | – | 760 nM | – | – | – | – | –
20 | Cc1cc(C)cc(-n2c(C)cc(/C=C3\SC(=Nc4ccc(Cl)cc4)NC3=O)c2C)c1 [TCMDC-124103] | 32 nM | 100 µM | 100.00 µM | 1 (1: YES) | 110.51% | 94.72% | 560 nM | 561 nM | – | – | – | – | –
21 | CCOC(=O)c1c(CN2CCCC2)n(-c2ccccc2)c2cc(Br)c(O)cc12 [TCMDC-124122] | 658 nM | 71.6 µM | 71.61 µM | 0 (0: NO) | 64.42% | 39.97% | 7760 nM | 7760 nM | – | – | – | – | –
22 | FC(F)(F)c1ccc(Nc2nnnc3ccccc23)cc1 [TCMDC-125603] | 9 nM | – | – | – | 80.24% | 96.04% | – | 1260 nM | – | – | – | – | –
23 | NS(=O)(=O)c1cncc(-c2ccc3nccc(-c4cn[nH]c4)c3n2)c1 [TCMDC-134293] | 283 nM | – | – | – | 59.71% | 54.48% | – | 2160 nM | – | – | – | – | –
24 | Cc1nc(C)c(-c2ccc(Oc3ccc(Cl)cc3Cl)cc2)c(O)c1Br [TCMDC-137533] | 165 nM | – | – | – | 69.44% | 92.36% | – | 203 nM | – | – | – | – | –
25 | COc1ccc2nccc([C@@H](O)CN3CCC(NCc4cc5cccc6c5n(c4=O)CCC6)CC3)c2c1.O=C(O)C(=O)O [TCMDC-140735] | – | 16.2 µM | 16.22 µM | 0 (0: NO) | 13.85% | 52.08% | 3430 nM | 3430 nM | – | – | – | – | –
26 | CC(C)(CN)c1nc(-c2ccc(Cl)c(O)c2)c(-c2ccnc(N)n2)[nH]1 [TCMDC-141019] | 863 nM | – | – | – | 10.20% | 56.84% | – | 1720 nM | – | – | – | – | –
